Structures can show the parent of a compound that is named as a salt.

In assay [1] the test system is TMK1 cells. In words: TMK1 cell migration in Boyden's chamber. Conditions: 4 hours. It is filed as cell-based. How it is done:
TMK1 cells, low-differentiating epithelial cells, were treated with trypsin. […] The culture medium in the lower well was then subjected to fixing and staining, and cells which had migrated therein were counted. Experiments were conducted concurrently in three chambers.
Each value will be presented as a mean ±S.D. and with respect to each compound, numbers of cells will be presented in the order of a) control, b) each pyrimidine compound (whose concentration will be specifically indicated), c) 10 ng/ml of EGF, and d) a mixed solution of each pyrimidine compound + EGF.

Assay [2] has as its system PDGF-A mRNAs. Description: Polysome distribution (translation) of PDGF-A mRNAs in rat SMCs. Format: cell-based. The protocol:
SMCs were prepared following the method proposed by Ross and Klebanoff in "J. Cell. […] A rat thoracic aorta was excised. After the tunica externa was peeled off, the tunica media and the tunica intima were minced into 2-3 mm^2. The minced sections were placed standstill in a 25-cm^2 flask which contained Waymouth's MB 752/1 medium containing 10% FBS and 80 ng/ml of gentamycin (product of Schering-Plough Corp.), followed by incubation at 37° C. for 2 to 3 weeks in the presence of 5% carbon dioxide gas (primary culture). The same volume of a trypsin-EDTA solution was added to the flask. After the sections were treated at 37° C. for 5 minutes to peel off cells, the cells were diluted with 10% FBS-Waymouth's MB 752/1 medium and then subcultured (second generation). Subculture was successively conducted likewise whenever the SMC became confluent. In the following experiments, the cells from the 5th generation to the 12th generation were employed. After reach in confluence of cells, the cultured SMCs were cultured for 2 days in a serum-free medium to avoid influence of serum. The SMCs were then added with thrombin (1.0 U/ml) or serotonin (5 μM), followed by incubation at 37° C. for 6 hours under which bring about induction of PDGF-A mRNAs at the maximum. To prevent dissociation of ribosomes and mRNAs, cycloheximide (100 μg/ml) was added 5 minutes before cells were collected. […] Biol. Chem.", 267, 508 ff, 1992 with slight modifications. The cells, which had been collected by the treatment with trypsin, were washed with PBS containing cycloheximide (100 μg/ml). A cell precipitate was then added with 500 μl of a high-salt lysis buffer (20 mM Tris-HCl pH 7.5, 250 mM NaCl, 5 mM MgCl2, 0.1% Noni det P-40, 0.2% DOC) for homogenization. The homogenate was centrifuged under 12,000×g at 4° C. for 10 minutes. The resulting supernatant was added with 67 μl of a heparine mix (7.4 mg/ml heparine, 1.1M NaCl, 15 mM DTT and RNasin). 200 μl of the extract were layered on 5 ml of 0.5-1.25M linear sucrose gradient (which contained 20 mM Tris-HCl pH 7.4, 10 mM NaCl, 3 mM MgCl2), followed by centrifugation under 45,000 rpm for 90 minutes in a "Hitachi […]". While monitoring the absorbance at 260 nm, ten (10) fractions were obtained. […] Subsequent to incubation at 37° C. for 1 hour, each fraction was extracted once with 1/2 volume of phenol, twice with 1/2 volume aliquots of chloroform, and once with the equal volume of chloroform, whereby proteins were removed. The water layer was added with glycogen (20 μg/ml) as a coprecipitant and then with 0.03M of sodium acetate, and RNAs were caused to precipitate with 2 volumes of ethanol. After RNAs were incubated at 65° C. for 5 minutes in a solution containing 60% of formamide, 5.9% of formaldehyde and the equal volume of MOPS buffer (10 mM MOPS pH 7.0, 4 mM NaOAc, 0.5 mM EDTA), electrophoresis was conducted across 1.2% agarose gels containing the equal volume of MOPS buffer so that RNAs were. isolated. After the gel was washed with 20 volumes of SSC, RNAs were blotted overnight to a Gene Screen Plus membrane by the capillary method. Fixing of the RNAs was conducted by exposing them for 1 minute at a distance of 10 cm from […]. Using a "QuickHyb Hybridization Solution" (product of Strategene Ltd.), hybridization was conducted following the instruction manual attached to the solution. Results of autoradiography were quantitated with reference to the NIH Image. […]

In assay [3] the test system is PDGF-A mRNAs. Description: Northern blot analysis of PDGF-A mRNA expression in cultured rat SMCs. It is filed as cell-based. Conditions: vs serum-free medium. How it is done:
SMCs were prepared following the method proposed by Ross and Klebanoff in "J. Cell. Biol.", 50, 159 ff, 1971 with partial modifications. A rat thoracic aorta was excised. After the tunica externa was peeled off, the tunica media and the tunica intima were minced into 2-3 mm^2. The minced sections were placed standstill in a 25-cm^2 flask which contained Waymouth's MB 752/1 medium containing 10% FBS and 80 ng/ml of gentamycin (product of Schering-Plough Corp.), followed by incubation at 37° C. for 2 to 3 weeks in the presence of 5% carbon dioxide gas (primary culture). The same volume of a trypsin-EDTA solution was added to the flask. After the sections were treated at 37° C. for 5 minutes to peel off cells, the cells were diluted with 10% FBS-Waymouth's MB 752/1 medium and then subcultured (second generation). Subculture was successively conducted likewise whenever the SMC became confluent. In the following experiments, the cells from the 5th generation to the 12th generation were employed.
After reach in confluence of cells, the cultured SMCs were cultured for 2 days in a serum-free medium to avoid influence of serum. The SMCs were then added with thrombin (1.0 U/ml) or serotonin (5 μM), followed by incubation at 37° C. for 6 hours under which bring about induction of PDGF-A mRNAs at the maximum. To prevent dissociation of ribosomes and mRNAs, cycloheximide (100 μg/ml) was added 5 minutes before cells were collected.
Preparation of a polysome fraction and extraction of RNAs were conducted following the method proposed by Kasper, et al. in "J. Biol. Chem.", 267, 508 ff, 1992 with slight modifications. The cells, which had been collected by the treatment with trypsin, were washed with PBS containing cycloheximide (100 μg/ml). A cell precipitate was then added with 500 μl of a high-salt lysis buffer (20 mM Tris-HCl pH 7.5, 250 mM NaCl, 5 mM MgCl2, 0.1% Noni det P-40, 0.2% DOC) for homogenization. The homogenate was centrifuged under 12,000×g at 4° C. for 10 minutes. The resulting supernatant was added with 67 μl of a heparine mix (7.4 mg/ml heparine, 1.1M NaCl, 15 mM DTT and RNasin). 200 μl of the extract were layered on 5 ml of 0.5-1.25M linear sucrose gradient (which contained 20 mM Tris-HCl pH 7.4, 10 mM NaCl, 3 mM MgCl2), followed by centrifugation under 45,000 rpm for 90 minutes in a "Hitachi RP55ST". While monitoring the absorbance at 260 nm, ten (10) fractions were obtained. To prepare samples for the extraction of RNAs, the fractions were individually added with SDS and proteinase K to give final concentrations of 1% and 0.2 mg/ml, respectively. Subsequent to incubation at 37° C. for 1 hour, each fraction was extracted once with 1/2 volume of phenol, twice with 1/2 volume aliquots of chloroform, and once with the equal volume of chloroform, whereby proteins were removed. The water layer was added with glycogen (20 μg/ml) as a coprecipitant and then with 0.03M of sodium acetate, and RNAs were caused to precipitate with 2 volumes of ethanol.
After RNAs were incubated at 65° C. for 5 minutes in a solution containing 60% of formamide, 5.9% of formaldehyde and the equal volume of MOPS buffer (10 mM MOPS pH 7.0, 4 mM NaOAc, 0.5 mM EDTA), electrophoresis was conducted across 1.2% agarose gels containing the equal volume of MOPS buffer so that RNAs were. isolated. After the gel was washed with 20 volumes of SSC, RNAs were blotted overnight to a Gene Screen Plus membrane by the capillary method. Fixing of the RNAs was conducted by exposing them for 1 minute at a distance of 10 cm from a 15-W sterilamp. Using a "QuickHyb Hybridization Solution" (product of Strategene Ltd.), hybridization was conducted following the instruction manual attached to the solution. Results of autoradiography were quantitated with reference to the NIH Image. […]

Assay [4] deals with primary cultured gastric mucosal cells. Description: Wound repair model with primary cultured gastric mucosal cells. Conditions: for area of the wounded region (mean±S.D.): EGF alone 10 ng/ml. Format: cell-based, rabbit. How it is done: Primary cultured gastric mucosal cells were prepared by mechanically peeling and mincing the gastric mucosa of a rabbit having a body weight of 2 kg and then digesting the minced gastric mucosa with 0.07% collagenase. The primary cultured gastric mucosal cells were cultured at a cell concentration of 3.3×10^5 cells/ml in F-12 culture medium containing 10% fetal calf serum added therein. For this cultivation, a culture dish (60 mm in diameter) coated with collagen type I was used. […] Using an anti-BrdU antibody, the cells in the S phase were stained to identify proliferated cells.
Their effects on the process of restoration were measured under the above-described parameters. […] In each of the control group and the medicament-added groups, the area of the wounded region was measured at the 0th hour, 12th hour, 24th hour, 36th hour and 48th hour. The measurement results will be given in this order.
The control group and the groups added with the medicament at the respective concentrations were each subjected to the experiment with n=5. The results will each be presented as a (mean±S. D.) mm2. A test of significance was conducted relative to the control group. * stands for p<0.05, ** for p<0.01, *** for p<0.001. A further test of significance was conducted relative to a group added with 10 ng/ml of EGF. + stands for p<0.05, and ++ for <0.01.

The subject of assay [5] is TMK1 cells. Description: Morphological change of TMK1 cells. Format: cell-based. Conditions: EGF alone 10 ng/ml, day 1.

Consider `CN1C(=O)Cc2cnc(N3CCCCC3)nc21`, for which the “numbers of cells counted (migrated), mean ±S.D.” value (“numbers of cells counted” for short) is 20.9±3.9 in the assay on TMK1 cells [1] (compound 0.1 mM + EGF 10 ng/ml) and 2.9±1.0 in the assay on TMK1 cells [1] (compound alone, 0.1 mM).

For the compound `CCC1CCN(c2ncc3c(n2)N(C)C(=O)C3)CC1` [2-(4-ethylpiperidino)-7-methyl-6-oxo-5,6-dihydro(7H)pyrro[2,3-d]pyrimidinemaleate], the “numbers of cells counted” value in the assay on TMK1 cells [1] (compound 0.1 mM + EGF 10 ng/ml) amounted to 144±3.1; in the assay with TMK1 cells [1] (compound alone, 0.1 mM), 28.6±18.4.

As for `CN1C(=O)C(C)(C)c2cnc(N3CCCCC3)nc21` [2-piperidino-5,5,7-trimethyl-6-oxo-5,6-dihydro(7H)pyrro[3,4-d]pyrimidine maleate], the “numbers of cells counted” value is 147.2±13.2 with TMK1 cells [1] (compound 0.1 mM + EGF 10 ng/ml) and 33±12.6 with TMK1 cells [1] (compound alone, 0.1 mM).

Consider `NCCc1c[nH]c2ccc(O)cc12` [serotonin, reference compound], for which the “translation state of the three kinds of PDGF-A mRNAs” value in the assay on PDGF-A mRNAs [2] (serotonin alone) was “all in translated forms”. The fold induction at 5 µM with PDGF-A mRNAs [3] (Rattus norvegicus, 6 h, sole addition of serotonin (5 μM), read-out: expression amount of 1.7 kb PDGF-A mRNAs compared with control) is 1.7.

As to EGF: epidermal growth factor, the “area of the wounded region (mean±S.D.)” value is reported as 2.06±0.06 mm2 in assay [4] (0th hour); 0.91±0.03 mm2 in assay [4] (12th hour); 0.46±0.15 mm2 in assay [4] (24th hour); 0.08±0.04 mm2 in assay [4] (36th hour); 0 mm2 in assay [4] (48th hour). In addition, in assay [4] (EGF alone 1-10 ng/ml), the “effect on migration, proliferation and restoration of the cells” value is “promoted migration and proliferation of the cells in a concentration-dependent manner and accelerated the speed of restoration”. Further, in the assay with TMK1 cells [5], the morphological changes entry was “significant morphological changes were observed as early as day 1, presenting scattering”.

As for thrombin, in the assay with PDGF-A mRNAs [2] (thrombin alone), the “translation state of 1.7 kb, 2.3 kb and 2.9 kb PDGF-A mRNAs” value is “both those in a translated form and those in the non-translated form”. In addition, in the assay with PDGF-A mRNAs [3] (sole addition of thrombin (1.0 U/ml)), the “expression amount of 1.7 kb PDGF-A mRNAs compared with control” value is 1.5 times.

For the origin of these results see patent US5976523A, “Method for healing compromised tissues using pyrimidine derivatives” (Mitsui Pharmaceuticals, Inc., priority 1995, dated 1999).
